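Following 48 hours of exposure in 96-well plates, responses at five concentrations were used to interpolate endpoints linearly. Here, GI50 denotes the concentration required for 50% inhibition of growth.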 Activity calls are given as the source filed them. Cut-off read from the data, not from the text of the source: active = GI50 up to about 1.1 µM and inactive = higher.
Assays:
Assay in all cases: NCI tumour cell line growth inhibition, 48 h
UO-31 = tested on: UO-31
SK-OV-3 = tested on: SK-OV-3
EKVX = tested on: EKVX
DMS-273 = tested on: DMS-273
HOP-92 = tested on: HOP-92
IGROV-1 = tested on: IGROV-1
UACC-257 = tested on: UACC-257
HOP-62 = tested on: HOP-62
UACC-62 = tested on: UACC-62
MOLT-4 = tested on: MOLT-4
RXF 631 = tested on: RXF 631
COLO 205 = tested on: COLO 205
HOP-18 = tested on: HOP-18
Malme-3M = tested on: Malme-3M
NCI-H23 = tested on: NCI-H23
SF-268 = tested on: SF-268
NCI-H522 = tested on: NCI-H522
M19-MEL = tested on: M19-MEL
NCI-H226 = tested on: NCI-H226
M14 = tested on: M14
CCRF-CEM = tested on: CCRF-CEM
OVCAR-8 = tested on: OVCAR-8
DLD-1 = tested on: DLD-1
SF-295 = tested on: SF-295
SNB-75 = tested on: SNB-75
OVCAR-3 = tested on: OVCAR-3
CAKI-1 = tested on: CAKI-1
K562 = tested on: K562
HL-60 = tested on: HL-60
SW-620 = tested on: SW-620
LXFL 529 = tested on: LXFL 529
HCT-116 = tested on: HCT-116
SK-MEL-5 = tested on: SK-MEL-5
DMS-114 = tested on: DMS-114
XF498 = tested on: XF498
SR = tested on: SR
786-0 = tested on: 786-0
SK-MEL-2 = tested on: SK-MEL-2
TK-10 = tested on: TK-10
KM12 = tested on: KM12
HT-29 = tested on: HT-29
SF-539 = tested on: SF-539
SK-MEL-28 = tested on: SK-MEL-28
OVCAR-4 = tested on: OVCAR-4
SNB-19 = tested on: SNB-19
HCC 2998 = tested on: HCC 2998
A549 = tested on: A549
RPMI-8226 = tested on: RPMI-8226
SNB-78 = tested on: SNB-78
HCT-15 = tested on: HCT-15
SN12C = tested on: SN12C
A498 = tested on: A498
RXF 393 = tested on: RXF 393
NCI-H460 = tested on: NCI-H460
ACHN = tested on: ACHN
LOX IMVI = tested on: LOX IMVI

`O=C1COc2cc3c(cc2N1)SCC(=O)N3` was tested, and the GI50 (UO-31) was > 100 µM (inactive), the GI50 (SK-OV-3) was > 100 µM (inactive) and the GI50 (EKVX) was 6.41 µM (inactive). For the same compound, the GI50 (DMS-273) was > 100 µM (inactive), the GI50 (HOP-92) was > 100 µM (inactive) and the GI50 (IGROV-1) was > 100 µM (inactive). For the same compound, the GI50 (UACC-257) was > 100 µM (inactive), the GI50 (HOP-62) was > 100 µM (inactive) and the GI50 (UACC-62) was > 100 µM (inactive). The GI50 (MOLT-4) was > 100 µM (inactive), the GI50 (RXF 631) was > 100 µM (inactive) and the GI50 (COLO 205) was > 100 µM (inactive). The GI50 (HOP-18) was > 100 µM (inactive), the GI50 (Malme-3M) was > 100 µM (inactive) and the GI50 (NCI-H23) was > 100 µM (inactive). The GI50 (SF-268) was > 100 µM (inactive), the GI50 (NCI-H522) was > 100 µM (inactive) and the GI50 (M19-MEL) was > 100 µM (inactive). The GI50 (NCI-H226) was > 100 µM (inactive), the GI50 (M14) was > 100 µM (inactive) and the GI50 (CCRF-CEM) was > 100 µM (inactive). The GI50 (OVCAR-8) was > 100 µM (inactive), the GI50 (DLD-1) was > 100 µM (inactive) and the GI50 (SF-295) was > 100 µM (inactive). The GI50 (SNB-75) was > 100 µM (inactive), the GI50 (OVCAR-3) was > 100 µM (inactive) and the GI50 (CAKI-1) was > 100 µM (inactive). The GI50 (K562) was > 100 µM (inactive), the GI50 (HL-60) was > 100 µM (inactive) and the GI50 (SW-620) was > 100 µM (inactive). The GI50 (LXFL 529) was > 100 µM (inactive), the GI50 (HCT-116) was > 100 µM (inactive) and the GI50 (SK-MEL-5) was > 100 µM (inactive). For the same compound, the GI50 (DMS-114) was > 100 µM (inactive), the GI50 (XF498) was > 100 µM (inactive) and the GI50 (SR) was > 100 µM (inactive). The GI50 (786-0) was > 100 µM (inactive), the GI50 (SK-MEL-2) was > 100 µM (inactive) and the GI50 (TK-10) was > 100 µM (inactive). For the same compound, the GI50 (KM12) was > 100 µM (inactive), the GI50 (HT-29) was > 100 µM (inactive) and the GI50 (SF-539) was > 100 µM (inactive). The GI50 (SK-MEL-28) was > 100 µM (inactive), the GI50 (OVCAR-4) was > 100 µM (inactive) and the GI50 (SNB-19) was > 100 µM (inactive). For the same compound, the GI50 (HCC 2998) was > 100 µM (inactive), the GI50 (A549) was > 100 µM (inactive) and the GI50 (RPMI-8226) was > 100 µM (inactive). For the same compound, the GI50 (SNB-78) was > 100 µM (inactive).
In the case of `COc1ccc([Se][Se]c2ccc(OC)cc2OC)c(OC)c1`, the GI50 (UO-31) is reported as 2.4 µM (inactive), the GI50 (SK-OV-3) is reported as 32.4 µM (inactive) and the GI50 (DMS-273) is reported as 5.12 µM (inactive). The GI50 (HOP-92) was 2.35 µM (inactive), the GI50 (IGROV-1) was 3.25 µM (inactive) and the GI50 (UACC-257) was 2.45 µM (inactive). For the same compound, the GI50 (HOP-62) was > 10 µM (inactive), the GI50 (UACC-62) was 1.93 µM (inactive) and the GI50 (MOLT-4) was 3.07 µM (inactive). The GI50 (RXF 631) was 6.31 µM (inactive), the GI50 (COLO 205) was 6.79 µM (inactive) and the GI50 (HOP-18) was 1.97 µM (inactive). The GI50 (Malme-3M) was 4.54 µM (inactive), the GI50 (NCI-H23) was 2.92 µM (inactive) and the GI50 (SF-268) was 2.19 µM (inactive). The GI50 (HCT-15) was 1.84 µM, the GI50 (NCI-H522) was 1.86 µM (inactive) and the GI50 (M19-MEL) was 2.03 µM (inactive). For the same compound, the GI50 (NCI-H226) was 2.9 µM (inactive), the GI50 (M14) was 2.92 µM (inactive) and the GI50 (CCRF-CEM) was 2.08 µM (inactive). The GI50 (OVCAR-8) was 4.75 µM (inactive), the GI50 (DLD-1) was 3.3 µM (inactive) and the GI50 (SF-295) was 2.1 µM (inactive). For the same compound, the GI50 (SN12C) was 2 µM (inactive), the GI50 (SNB-75) was 1.59 µM (inactive) and the GI50 (OVCAR-3) was 3.52 µM (inactive). The GI50 (A498) was 18.2 µM (inactive), the GI50 (CAKI-1) was 3.54 µM (inactive) and the GI50 (K562) was 2.88 µM (inactive). The GI50 (HL-60) was 2.43 µM (inactive), the GI50 (SW-620) was 2.59 µM (inactive) and the GI50 (RXF 393) was 2.13 µM (inactive). For the same compound, the GI50 (LXFL 529) was 2.1 µM (inactive), the GI50 (HCT-116) was 2.75 µM (inactive) and the GI50 (SK-MEL-5) was 7.85 µM (inactive). The GI50 (DMS-114) was 2.01 µM (inactive), the GI50 (NCI-H460) was 4.29 µM (inactive) and the GI50 (XF498) was 1.94 µM (inactive). For the same compound, the GI50 (ACHN) was 2.86 µM (inactive), the GI50 (786-0) was 2.81 µM (inactive) and the GI50 (SK-MEL-2) was 4.08 µM (inactive). For the same compound, the GI50 (TK-10) was 4.06 µM (inactive), the GI50 (KM12) was 3.52 µM (inactive) and the GI50 (HT-29) was 3.14 µM (inactive). The GI50 (SF-539) was 1.75 µM (inactive), the GI50 (SK-MEL-28) was 2.16 µM (inactive) and the GI50 (OVCAR-4) was 2.1 µM (inactive). For the same compound, the GI50 (SNB-19) was 3.64 µM (inactive), the GI50 (HCC 2998) was 6.07 µM (inactive) and the GI50 (A549) was 8.89 µM (inactive). The GI50 (RPMI-8226) was 2.48 µM (inactive), the GI50 (LOX IMVI) was 2 µM (inactive) and the GI50 (SNB-78) was 2.66 µM (inactive).

From ChEMBL document CHEMBL1201862, “PubChem BioAssay data set” (2004)
